# Laboratory results taken from patent US10668125B2, “Peptide having highly-shifted accumulation to pancreatic cancer cells and tissues, and use of said peptide” (Niigata University, priority 2015, dated 2020).
# Where no end group is shown, it is not given here.
# Legend:
# BxPC3 cells [1] = test: Test Example 1: quantitative fluorescence in BxPC3 cells relative to HPNE cells; assay type: cell-based, human; conditions: absorption into normal pancreatic duct epithelial cells (HPNE) designated as 1.0, 2 μM, 2 hours, FIG. 2B
# Procedure: (§1) Those cells were cultured for 2 hours at 37° C. Subsequently, the cells were washed three times with the medium in order to remove the peptide-containing medium. Subsequently, the uptake of the various peptides in the living cells was visually evaluated using an inverted type fluorescence microscope. Prior to the microscopic examination, the culture supernatant containing the peptides were removed, the cells were washed three times with 1×PBS (−), and then the cells were treated with trypsin. Adherent cells were detached and were immediately transferred into a fresh 96-well plate. The cells were resuspended in a fresh culture fluid, and then a microscopic examination was performed.
# The graph of FIG. 2A is a graph showing the proportions of fluorescence intensities detected in various cells, the proportions being obtained by quantitatively analyzing the fluorescence detected in the various cells to which various peptides were added in Test Example 1, and determining relative values by designating the fluorescence detected in HPNE cells, which are a human immortalized normal pancreatic duct epithelial cell line, as 1.0. […]
# [2] = test system: KYN-2 cells and normal cells originating from various tissues; test: Test Example 1: accumulation of peptide to other cancer cells and normal cells (fluorescence microscope); assay type: cell-based, human; conditions: FITC-labeled peptide 2 μM, 2 hours at 37° C., FIG. 1
# Procedure: (§2) These were maintained by subculture in the laboratory by the inventors.
# (§3) Pancreatic cancer cells and HPNE cells were cultured using a 5% FBS-containing CS-C medium kit. KYN-2 cells, HaCaT cells, NHDF cells, MMNK-1 cells, and Liver cells were cultured using 10% FBS-containing RPMI1640 medium. Kidney cells were cultured using a proliferation medium for normal human renal epithelial cells (RenaLife Comp Kit). NuLi-1 cells were cultured using BEGM medium (Bronchial Epithelial Growth Medium, Serum-free). TIME cells were cultured using EBM-2-MV Bullet kit (Endothelial Cell Basal Medium-2 Bullet kit).
# as §1
# Panc1 cells = test: Test Example 2: accumulation of peptide in tissues of mouse intraperitoneally transplanted with Panc1 cells; assay type: in vivo; conditions: NOD-SCID mice with Panc1 cells, i.v. 300 μg per 20 g body weight, 30 minutes after administration, FIG. 3A
# Procedure: (§4) NOD-SCID mice (six-week-old female mice purchased from Crea-Japan, Inc.) intraperitoneally transplanted with Panc1 cells or PK-8 cells, which are human pancreatic cancer cells, in an amount of 1×10^6 cells in each animal, were produced as human pancreatic cancer cell-transplanted mice. Thirty days after the transplantation of human pancreatic cancer cells, Peptide 1 produced in Example 1 was intravenously (i.v.) injected to the mice in an amount of 300 μg with respect to 20 g of the mouse body weight. […] In FIG. 3A and FIG. 3B, the “Bright Field” refers to images taken in the bright field, and “FITC” refers to images taken in the dark field under the conditions of green fluorescence excitation at a wavelength of 488 nm.
# PK-8 cells = test: Test Example 2: accumulation of peptide in tissues of mouse intraperitoneally transplanted with PK-8 cells; assay type: in vivo; conditions: NOD-SCID mice with PK-8 cells, i.v. 300 μg per 20 g body weight, 30 minutes after administration, FIG. 3B
# Procedure: as §4
# [3] = test system: various pancreatic cancer cells (BxPC3, PK-8, PL45, AsPC1, Panc1); test: Test Example 1: accumulation of peptide to pancreatic cancer cells (fluorescence microscope); assay type: cell-based, human; conditions: FITC-labeled peptide 2 μM, 2 hours at 37° C., FIG. 1
# Procedure: as §2, §3, §1
# BxPC3 cells [4] = test: Test Example 3: accumulation of peptide in tissues of mouse with BxPC3 cells transplanted into the pancreas; assay type: in vivo
# Procedure: NOD-SCID mice (six-week-old female mice purchased from Crea-Japan, Inc.) having BxPC3 cells, which are human pancreatic cancer cells, transplanted into the pancreas in an amount of 1×10^6 cells in each animal, were produced as human pancreatic cancer cell-transplanted mice. Thirty days after the transplantation of human pancreatic cancer cells, Peptide 4 produced in Example 1 was intravenously (i.v.) injected to the mice in an amount of 150 μg with respect to 20 g of the mouse body weight. […] In FIG. 4, the “Bright Field” refers to images taken in the bright field, and “FITC” refers to images taken in the dark field under the conditions of green fluorescence excitation at a wavelength of 488 nm. Furthermore, in FIG. 4, “brain” means the brain, “heart” means the heart, “kidney” means the kidney, “liver” means the liver, “lung” means the lung, “muscle” means the skeletal muscle, “pancreas” means the pancreas, “spleen” means the spleen, and “tumor” means a malignant tumor. “Surface” means the surface of various organs, and “transection” means a transverse section of various organs.
# FIG. 5 is a graph showing the proportions of the fluorescence intensities detected in various tissues, the proportions being obtained by designating the fluorescence detected in normal pancreas as 1.0.
Sequence,absorption ratio (S/N ratio) into BxPC3 cells (BxPC3 cells [1]),fluorescence detected in KYN-2 cells and normal cells originating from various tissues [2],fluorescence of FITC in tumor lesions and normal organs (Panc1 cells),fluorescence of FITC in tumor lesions and normal organs (PK-8 cells),fluorescence detected in the various pancreatic cancer cells [3],"fluorescence of FITC in tumor lesions and normal organs (BxPC3 cells [4]; NOD-SCID mice with BxPC3 cells in pancreas, i.v. 150 μg per 20 g body weight, 30 minutes after administration, FIG. 4)","S/N ratio in the target malignant tumor (BxPC3 cells [4]; absorption into normal pancreas designated as 1.0, i.v. 150 μg per 20 g, 30 minutes, FIG. 5)","S/N ratio in the kidneys (BxPC3 cells [4]; absorption into normal pancreas designated as 1.0, i.v. 150 μg per 20 g, 30 minutes, FIG. 5, ascribed to urinary excretion, not cell uptake)"
"GYRRTTPSYWRMWLR (also: FITC label, site not given here) [Peptide 1, IVV library-derived 15-amino acid residue peptide, synthesized FITC-labeled]",about 6 times,fluorescence was hardly detected,strong fluorescence of FITC was detected in the tumor and the metastatic lesions,strong fluorescence of FITC was detected in the tumor and the metastatic lesions,strong fluorescence was detected,–,–,–
"ARRYTWIRA (also: FITC label, site not given here) [Peptide 2, IVV library-derived 9-amino acid residue peptide, synthesized FITC-labeled]",about 6 times,fluorescence was hardly detected,–,–,strong fluorescence was detected,–,–,–
"RAWRQCRWR (also: FITC label, site not given here) [Peptide 3, IVV library-derived 9-amino acid residue peptide, synthesized FITC-labeled]",–,fluorescence was hardly detected,–,–,strong fluorescence was detected,–,–,–
"RRPTTWHKP (also: FITC label, site not given here) [Peptide 4, IVV library-derived 9-amino acid residue peptide, synthesized FITC-labeled]",–,fluorescence was hardly detected,–,–,strong fluorescence was detected,strong fluorescence of FITC was detected in the tumor and the kidneys,about 9 times,about 11 times
